According to paper PMC12211128, “Safety, tolerability, pharmacokinetic and pharmacodynamic effects of the muscarinic M1 positive allosteric modulator VU0467319 for Alzheimer’s disease: a single ascending-dose study in healthy participants” (Alzheimer's Research & Therapy, 2025):

Key:
[1] = test system: animal models; parameters: method as in PMID 39660766; settings: preclinical and IND-enabling studies; cited from earlier work
[2] = test system: healthy participants; assay: Spatial selective attention test (SSAT); assay type: in vivo, human; settings: for SSAT Alerting Cost / SSAT Reorienting Cost: mean (SD)
Excerpt: A version of the spatial selective attention test (SSAT; [33]) was used to assess the ability of participants to disengage attention and shift to a new target. Participants were asked to press a button corresponding to the side of the screen on which a stimulus appeared. The outcome variables of the task are the reaction time effects related to the ability of participants to anticipate a target when there is an ambiguous cue compared to there being no cue at all (Alerting effect: no cue– neutral cue); and the ability of participants to shift their attention between congruent and incongruent stimuli (Reorienting effect: invalid cue– valid cue).
Cognitive data: In this exploratory analysis, each outcome variable of the cognitive data was examined in a mixed model analysis of variance with one between-subjects factor of VU319 dose (0, 60, 120, 240, 400, 600 mg) and a within-subjects factor of testing session (pre-dose vs. post-dost administration). Post-hoc analysis compared each of the VU319 dose cohorts against the placebo group. Because the participants were healthy adults with normal cognitive function, we considered effects between no reductions in function to small improvement (d = 0.0–0.20) to be a positive result. For the food effect study, only the participants who received VU319 were examined due to the disproportionately small placebo group (n = 2). A within-subjects ANOVA including food condition (fasted/fed) and testing session (pre-dose vs. post-dose administration) was performed on each outcome variable.
A version of the spatial selective attention test (SSAT; (Posner, 1980)) was used to assess the ability of participants to disengage attention and shift to a new target. Participants were asked to press a button corresponding to the side of the screen on which a stimulus appeared. A central diamond was placed in between serving as a fixation point. Cues consisted of a 200-ms darkening of one side of the diamond depicting an arrowhead pointing to one of the peripheral boxes. The cue was followed by a target appearing for 100-ms in one of the boxes. To prevent temporal orienting, we used two randomly occurring cue–target intervals (400 and 700-ms). The targets were black diamonds that appeared in either the left or right boxes. In most trials, the cue validly predicted the target, however some cues were invalid, that is they pointed in the opposite direction of the target. On some trials, both sides of the diamond darkened, resulting in an ambiguous or neutral cue in which the participants were not able to prepare a specific hand to respond. […] The task consisted of 112 trials, with 64 trials (57%) with valid cues, and 16 trials (14.3%) each for the invalid, neutral or no cues conditions. The outcome variables of the task are the reaction time effects related to the ability of participants to anticipate a target when there is an ambiguous cue compared to there being no cue at all (Alerting effect: no cue – neutral cue); and the ability of participants to shift their attention between congruent and incongruent stimuli (Reorienting effect: invalid cue – valid cue).

[3] = Food effect study 120 mg, Fasting, Post-Drug
[4] = Food effect study 120 mg, Fasting, Pre-Drug
[5] = Food effect study 120 mg, Fed, Post-Drug
[6] = Food effect study 120 mg, Fed, Pre-Drug

Cn1cc2c(-c3cc(F)c(CN4Cc5ncccc5C4=O)c(F)c3)cccc2n1 [VU319]
SLUDGE effects in animal models [1]: without producing SLUDGE effects
cognition in animal models [1]: effective at improving cognition
SSAT Alerting Cost [2, 3]: 25.8 (59.97) ms
SSAT Reorienting Cost [2, 3]: 49.55 (35.68) ms
SSAT Alerting Cost [2, 4]: 60.4 (53.4) ms
SSAT Reorienting Cost [2, 4]: 52.15 (24.83) ms
SSAT Alerting Cost [2, 5]: 113.15 (181.48) ms
SSAT Reorienting Cost [2, 5]: 49.45 (32.65) ms
SSAT Alerting Cost [2, 6]: 54.1 (45.3) ms
SSAT Reorienting Cost [2, 6]: 56.75 (38.19) ms
SSAT Alerting Cost ([2]; SAD study, 60 mg, Post-Drug): 59.58 (43) ms
SSAT Reorienting Cost ([2]; SAD study, 60 mg, Post-Drug): 55.25 (34.49) ms
SSAT Alerting Cost ([2]; SAD study, 60 mg, Pre-Drug): 53.67 (39.48) ms
SSAT Reorienting Cost ([2]; SAD study, 60 mg, Pre-Drug): 43.58 (31.92) ms
SSAT Alerting Cost ([2]; SAD study, 120 mg, Post-Drug): 44.25 (22.86) ms
SSAT Reorienting Cost ([2]; SAD study, 120 mg, Post-Drug): 20.33 (32.95) ms
SSAT Alerting Cost ([2]; SAD study, 120 mg, Pre-Drug): 62.75 (45) ms
SSAT Reorienting Cost ([2]; SAD study, 120 mg, Pre-Drug): 10.17 (18.88) ms
SSAT Alerting Cost ([2]; SAD study, 240 mg, Post-Drug): 58.83 (38.04) ms
SSAT Reorienting Cost ([2]; SAD study, 240 mg, Post-Drug): 39.67 (33.04) ms
SSAT Alerting Cost ([2]; SAD study, 240 mg, Pre-Drug): 34.83 (27.3) ms
SSAT Reorienting Cost ([2]; SAD study, 240 mg, Pre-Drug): 27.92 (29.28) ms
SSAT Alerting Cost ([2]; SAD study, 400 mg, Post-Drug): 44.92 (26.61) ms
SSAT Reorienting Cost ([2]; SAD study, 400 mg, Post-Drug): 31.25 (18.61) ms
SSAT Alerting Cost ([2]; SAD study, 400 mg, Pre-Drug): 59.75 (24.51) ms
SSAT Reorienting Cost ([2]; SAD study, 400 mg, Pre-Drug): 22.17 (25) ms
SSAT Alerting Cost ([2]; SAD study, 600 mg, Post-Drug): 19.5 (41.26) ms
SSAT Reorienting Cost ([2]; SAD study, 600 mg, Post-Drug): 31.33 (15.75) ms
SSAT Alerting Cost ([2]; SAD study, 600 mg, Pre-Drug): 26.08 (37.44) ms
SSAT Reorienting Cost ([2]; SAD study, 600 mg, Pre-Drug): 20.92 (11.57) ms
SSAT reorienting effect, effect of dose ([2]; SAD study, both p > 0.3): no effect of dose, nor a dose by time interaction
SSAT, effect of food condition or time ([2]; food effect study, 120 mg): no effect of either food condition or time
